According to patent US20190209472A1, “FORMULATIONS FOR DERMAL DELIVERY OF POLYMER CONJUGATES OF INDOLOCARBAZOLE COMPOUNDS WITH REDUCED EXPOSURE” (Sienna Biopharmaceuticals, Inc., priority 2017, published 2019):
Where two headings read alike, the source gives them in different places.

Tested on: lesions of psoriasis vulgaris
Text: This was a Phase I, single-center, randomized, double-blind, placebo-controlled study in male and female patients with stable psoriasis vulgaris aged >18 and <71 years. Sixteen patients were enrolled in 2 treatment groups. […] Patients attended a screening visit within 21 days prior to Day 1. Patients were then admitted to the CPU in the afternoon of Day −1 and remained resident in the CPU until the morning of Day 8. Patients attended a follow-up visit 7 to 10 days after the last treatment administration on Day 7.
The ointment was applied by the CPU staff, using a spatula and finger cot.
Physicians Global Assessment (PGA) scores were assessed at screening, Day 1, Day 7 and at follow-up. Digital photographs of the application sites were also taken on admission to the CPU, Day 7 and at follow-up.

Substance: (9S, 10R, 12R)-10-(3′-mPEG2000-1′,3′-oxazolidine-2′,4′-dione)-2,3,9,10,11,12-hexahydro-9-methyl-1-oxo-9,12-epoxy-1H-diindolo[1,2,3-fg:3′,2′,1′-k,l]pyrrolo[3,4-i][1,6] benzodiazocine] [CT327]
- Complete resolution of plaque(s) (7-day dosing period): No patients showed complete resolution
- PGA Erythma 1: FAINT ERYTHEMA, patients (%) (Plaque 1, DAY 1, N = 12): (16.7%)
- PGA Erythma 2: LIGHT RED COLOURATION, patients (%) (Plaque 1, DAY 1, N = 12): (66.7%)
- PGA Erythma 3: MODERATE RED COLOURATION, patients (%) (Plaque 1, DAY 1, N = 12): (8.3%)
- PGA Erythma 4: BRIGHT RED COLOURATION, patients (%) (Plaque 1, DAY 1, N = 12): (8.3%)
- PGA Induration 1: MINIMAL PLAQUE ELEVATION, =0.25 MM, patients (%) (Plaque 1, DAY 1, N = 12): (33.3%)
- PGA Induration 2: MILD PLAQUE ELEVATION, =0.5 MM, patients (%) (Plaque 1, DAY 1, N = 12): (41.7%)
- PGA Induration 3: MODERATE PLAQUE ELEVATION, =0.75 MM, patients (%) (Plaque 1, DAY 1, N = 12): (25.0%)
- PGA Scaling 2: MILD, FINE SCALE DOMINATES, patients (%) (Plaque 1, DAY 1, N = 12): (58.3%)
- PGA Scaling 3: MODERATE, COARSE SCALE PREDOMINATES, patients (%) (Plaque 1, DAY 1, N = 12): (33.3%)
- PGA Scaling 4: MARKED, THICK, NON-TENACIOUS SCALE DOMINATES, patients (%) (Plaque 1, DAY 1, N = 12): (8.3%)
- Physician Static Global Score 1: MINIMAL, patients (%) (Plaque 1, DAY 1, N = 12): (8.3%)
- Physician Static Global Score 2: MILD, patients (%) (Plaque 1, DAY 1, N = 12): (58.3%)
- Physician Static Global Score 3: MODERATE, patients (%) (Plaque 1, DAY 1, N = 12): (33.3%)
- PGA Erythma 1: FAINT ERYTHEMA, patients (%) (Plaque 1, DAY 7, N = 12): (16.7%)
- PGA Erythma 2: LIGHT RED COLOURATION, patients (%) (Plaque 1, DAY 7, N = 12): (66.7%)
- PGA Erythma 3: MODERATE RED COLOURATION, patients (%) (Plaque 1, DAY 7, N = 12): (8.3%)
- PGA Erythma 4: BRIGHT RED COLOURATION, patients (%) (Plaque 1, DAY 7, N = 12): (8.3%)
- PGA Induration 1: MINIMAL PLAQUE ELEVATION, =0.25 MM, patients (%) (Plaque 1, DAY 7, N = 12): (66.7%)
- PGA Induration 2: MILD PLAQUE ELEVATION, =0.5 MM, patients (%) (Plaque 1, DAY 7, N = 12): (33.3%)
- PGA Scaling 0: NO EVIDENCE OF SCALING, patients (%) (Plaque 1, DAY 7, N = 12): (8.3%)
- PGA Scaling 1: MINIMAL, OCCASIONAL FINE SCALE OVER LESS THAN 5% OF THE LESION, patients (%) (Plaque 1, DAY 7, N = 12): (58.3%)
- PGA Scaling 2: MILD, FINE SCALE DOMINATES, patients (%) (Plaque 1, DAY 7, N = 12): (33.3%)
- Physician Static Global Score 1: MINIMAL, patients (%) (Plaque 1, DAY 7, N = 12): (41.7%)
- Physician Static Global Score 2: MILD, patients (%) (Plaque 1, DAY 7, N = 12): (50.0%)
- Physician Static Global Score 3: MODERATE, patients (%) (Plaque 1, DAY 7, N = 12): (8.3%)
- PGA Erythma 1: FAINT ERYTHEMA, patients (%) (Plaque 1, FOLLOW-UP, N = 12): (33.3%)
- PGA Erythma 2: LIGHT RED COLOURATION, patients (%) (Plaque 1, FOLLOW-UP, N = 12): (58.3%)
- PGA Erythma 4: BRIGHT RED COLOURATION, patients (%) (Plaque 1, FOLLOW-UP, N = 12): (8.3%)
- PGA Induration 1: MINIMAL PLAQUE ELEVATION, =0.25 MM, patients (%) (Plaque 1, FOLLOW-UP, N = 12): (33.3%)
- PGA Induration 2: MILD PLAQUE ELEVATION, =0.5 MM, patients (%) (Plaque 1, FOLLOW-UP, N = 12): (66.7%)
- PGA Scaling 1: MINIMAL, OCCASIONAL FINE SCALE OVER LESS THAN 5% OF THE LESION, patients (%) (Plaque 1, FOLLOW-UP, N = 12): (16.7%)
- PGA Scaling 2: MILD, FINE SCALE DOMINATES, patients (%) (Plaque 1, FOLLOW-UP, N = 12): (58.3%)
- PGA Scaling 3: MODERATE, COARSE SCALE PREDOMINATES, patients (%) (Plaque 1, FOLLOW-UP, N = 12): (25.0%)
- Physician Static Global Score 1: MINIMAL, patients (%) (Plaque 1, FOLLOW-UP, N = 12): (16.7%)
- Physician Static Global Score 2: MILD, patients (%) (Plaque 1, FOLLOW-UP, N = 12): (75.0%)
- Physician Static Global Score 3: MODERATE, patients (%) (Plaque 1, FOLLOW-UP, N = 12): (8.3%)
- PGA Erythma 1: FAINT ERYTHEMA, patients (%) (Plaque 1, SCREENING, N = 12): (8.3%)
- PGA Erythma 2: LIGHT RED COLOURATION, patients (%) (Plaque 1, SCREENING, N = 12): (41.7%)
- PGA Erythma 3: MODERATE RED COLOURATION, patients (%) (Plaque 1, SCREENING, N = 12): (41.7%)
- PGA Erythma 4: BRIGHT RED COLOURATION, patients (%) (Plaque 1, SCREENING, N = 12): (8.3%)
- PGA Induration 1: MINIMAL PLAQUE ELEVATION, =0.25 MM, patients (%) (Plaque 1, SCREENING, N = 12): (33.3%)
- PGA Induration 2: MILD PLAQUE ELEVATION, =0.5 MM, patients (%) (Plaque 1, SCREENING, N = 12): (50.0%)
- PGA Induration 3: MODERATE PLAQUE ELEVATION, =0.75 MM, patients (%) (Plaque 1, SCREENING, N = 12): (8.3%)
- PGA Induration 4: MARKED PLAQUE ELEVATION, =1 MM, patients (%) (Plaque 1, SCREENING, N = 12): (8.3%)
- PGA Scaling 1: MINIMAL, OCCASIONAL FINE SCALE OVER LESS THAN 5% OF THE LESION, patients (%) (Plaque 1, SCREENING, N = 12): (16.7%)
- PGA Scaling 2: MILD, FINE SCALE DOMINATES, patients (%) (Plaque 1, SCREENING, N = 12): (33.3%)
- PGA Scaling 3: MODERATE, COARSE SCALE PREDOMINATES, patients (%) (Plaque 1, SCREENING, N = 12): (41.7%)
- PGA Scaling 4: MARKED, THICK, NON-TENACIOUS SCALE DOMINATES, patients (%) (Plaque 1, SCREENING, N = 12): (8.3%)
- Physician Static Global Score 1: MINIMAL, patients (%) (Plaque 1, SCREENING, N = 12): (16.7%)
- Physician Static Global Score 2: MILD, patients (%) (Plaque 1, SCREENING, N = 12): (41.7%)
- Physician Static Global Score 3: MODERATE, patients (%) (Plaque 1, SCREENING, N = 12): (33.3%)
- Physician Static Global Score 4: MARKED, patients (%) (Plaque 1, SCREENING, N = 12): (8.3%)
- PGA Erythma 2: LIGHT RED COLOURATION, patients (%) (Plaque 2, DAY 1, N = 12): (33.3%)
- PGA Induration 1: MINIMAL PLAQUE ELEVATION, =0.25 MM, patients (%) (Plaque 2, DAY 1, N = 12): (8.3%)
- PGA Induration 2: MILD PLAQUE ELEVATION, =0.5 MM, patients (%) (Plaque 2, DAY 1, N = 12): (16.7%)
- PGA Induration 3: MODERATE PLAQUE ELEVATION, =0.75 MM, patients (%) (Plaque 2, DAY 1, N = 12): (8.3%)
- PGA Scaling 2: MILD, FINE SCALE DOMINATES, patients (%) (Plaque 2, DAY 1, N = 12): (16.7%)
